The source of these data is US20230174473A1, “ANTIMICROBIAL AND ANTIVIRAL SULFUR CONTAINING GLYCEROL MONOESTER DERIVATIVES” (priority 2020, published 2023).

In brackets after ≈: the same amount, converted by molar mass.

The subject of one test is Bacillus subtilis. Briefly: MIC/MBC at 24 hours. The test is classed as cell-based. Conditions: Time 0 1.1E+07 CFU/ml, 200 RPM shaking at 37° C. As for the experimental part: Bacillus subtilis, an aerobic spore-former, was incubated with 200 RPM shaking at 37° C. The strain was a recent clinical isolate at the University of Iowa, and proves to develop resistance to standard […] agents.
(§1) All solutions used in the MBC and MIC studies were prepared from a stock of 100 mg/ml of either GML, SGML or S2GML in absolute ethanol.

In a further test the test system is Candida auris. Briefly: MIC/MBC at 24 hours. The test is classed as cell-based. As to conditions: Time 0 4.5E+05 CFU/ml. How it is done:
Candida auris is a newly emerging yeast (fungus) that is causing skin and bloodstream infections in humans. It easily becomes resistant to anti-fungal agents, making development of novel therapeutics a necessity. This organism is related to Candida albicans and other Candida species. The MIC and MBC in the above table show very good activity of both the SGML and S2GML versus this organism.
as §1

Another test has as its system S. aureus strains. Briefly: Susceptibility of S. aureus strains to GML. It counts as cell-based, Staphylococcus aureus.
Another test deals with Group C Streptococcus. As to conditions: Gram Positive; Aerotolerant Anaerobe; 1 strain tested; cited from earlier work.
For the next test, the system named is Group G Streptococcus. As to conditions: Gram Positive; Aerotolerant Anaerobe; 1 strain tested; cited from earlier work.
The next test has as its system Streptococcus suis. Conditions: Gram Positive; Aerotolerant Anaerobe; 1 strain tested; cited from earlier work.
The next test relates to Streptococcus sanguinis. Conditions: Gram Positive; Aerotolerant Anaerobe; 1 strain tested; cited from earlier work.
A further test relates to Listeria monocytogenes. Conditions: Gram Positive; Aerobe; 1 strain tested; cited from earlier work.
Another test concerns Clostridium perfringens. Conditions: Gram Positive; Anaerobe; 1 strain tested; cited from earlier work.
The next test deals with Burkholderia cenocepacia. Conditions: Gram Negative; Aerobe; 1 strain tested; cited from earlier work.
In a further test the test system is Escherichia coli. As to conditions: Gram Negative; Aerobe; 2 strains tested; cited from earlier work.
The test system of the next test is Proteus vulgaris. As to conditions: Gram Negative; Aerobe; 1 strain tested; cited from earlier work.
Test [1] has as its system Mycobacterium tuberculosis. Conditions: Acid Fast; Aerobe; 1 strain tested; cited from earlier work.

Turning to `CCCCCCCCCCCC(=O)OCC(O)CO` (centres unmarked) [GML, glycerol monolaureate], the MIC/MBC in the test on Bacillus subtilis and against Candida auris was 50 µg/mL (≈ 182 µM) each time. For the same molecule, the “concentration to which all S. aureus strains tested remain susceptible” value in the test with S. aureus strains (all strains of S. aureus tested) is not above 500 µg/mL. The molecule also had a bactericidal concentration with S. aureus strains (most S. aureus strains) of 250 µg/mL. Besides, the “Average Bactericidal Concentration” value was 30 mg/mL in the test with Group C Streptococcus; 50 mg/mL in the test with Group G Streptococcus; 50 mg/mL in the test with Streptococcus suis; 50 mg/mL in the test with Streptococcus sanguinis; 50 mg/mL in the test with Listeria monocytogenes; 1 mg/mL with Clostridium perfringens. The “Average Bactericidal Concentration” value was 500 mg/mL in the test with Burkholderia cenocepacia, “Not Susceptible” in the test with Escherichia coli, “Not Susceptible” in the test on Proteus vulgaris and 100 mg/mL in [1].
